Assay results: patent US20100314318A1, “HALOGENATED AMIDE BIOCIDAL COMPOUNDS AND METHODS FOR TREATING WATER SYSTEMS AT NEAR NEUTRAL TO HIGH PH” (priority 2009, published 2010)
Where two headings read alike, the source gives them in different places.

How the values were obtained:
[1] = system: bacteria isolated from Cooling Tower water; assay: Efficacy in sterile artificial Cooling Tower water (approx. pH 8.5); type: cell-based; conditions: 30° C.
[2] = system: Pseudomonas aeruginosa ATCC 10145; assay: Bactericidal efficacy in synthetic salts water pH 8.5; type: cell-based; conditions: for Dosage required for 3 log10 bacterial reduction (ppm, active): 37° C.; for long term bactericidal efficacy compared with DBNPA: after 48 hour incubation and rechallenge with P. aeruginosa cells
Experimental: A sterile synthetic salts water is prepared and inoculated with Pseudomonas aeruginosa ATCC 10145 at about 10^7 CFU/mL. The synthetic water is prepared to contain (in 1 liter deionized water) the following: CaCl2, 0.2203 g; MgSO4, 0.1847 g; and NaHCO3, 0.2033 g. The final pH of the synthetic cooling water is adjusted to 8.5. Aliquots of the cell suspension are then treated with biocides at selected dosage levels. The same contaminated water sample without biocide is used as control. After incubating at 37° C. for different time intervals, numbers of surviving bacteria are enumerated using a serial dilution method. After incubating for 24 hr, all cell suspensions are reinoculated with Pseudomonas aeruginosa ATCC 10145 at 10^6 CFU/mL. The efficacy results for […]

[3] = system: four bacterial species (Pseudomonas aeruginosa, Klebsiella pneumoniae, Bacillus subtilis, Staphylococcus aureus); assay: Preservation of kaolin slurry Kaolux HS (pH 6.6); type: cell-based, bacteria
Description: Two samples of kaolin slurries (Kaolux HS [particle size finer than 2 microns, 83.4%; 64.9% solids; pH 6.6] and Kaogloss [particle size finer than 2 microns, 90.7%; 70.1% solids; pH 6.3]), are obtained from Thiele Kaolin Company, Sandersville, Ga. Samples of the two slurries are inoculated with four bacterial species (described in Example 8), sampled to confirm the initial size of the bacterial community, and treated with selected concentrations of DBMAL. Samples for bacterial enumeration are collected after 24 hr and 48 hr incubation periods.

bacterial consortium = assay: Preservation of calcium carbonate slurry Hydrocarb 90 (pH 8.7)
[4] = system: mixed species consortium of bacteria; assay: Preservation of 10% CaCO3 suspensions; conditions: 10 ppm, pH 7.0, 8.0, 9.0
[5] = system: amoeba (Acanthamoeba polypohaga) fed Legionella pneumophila (AfLp); type: cell-based; conditions: for Active concentration (ppm) required for complete kill (6 log reduction): Amoeba fed Legionella
[6] = system: bacteria in Cooling Tower water; assay: Efficacy in cooling tower water sample (about pH 8.3), serial dilution count; type: cell-based
[7] = Stability against hydrolysis in buffered dilute solutions, HPLC
[8] = system: bacteria isolated from field; assay: Efficacy in semi-synthetic metal working fluid; type: cell-based; conditions: room temperature, MWF
Free Legionella = type: cell-based, Legionella pneumophila
[9] = 48 hr, pH 8.5, reinoculated after 24 hr

SMILES: CC1(C)C(=O)N(Cl)C(=O)N1Br [BCDMH, 1-Bromo-3-chloro-5,5-dimethylhydantoin]
- Minimum biocide dosage (ppm, active) needed for at least 3 log10 bacterial reduction ([1]; 1 h): 7.0 ppm
- Minimum biocide dosage (ppm, active) needed for at least 3 log10 bacterial reduction ([1]; 3 h): 26.0 ppm
- Minimum biocide dosage (ppm, active) needed for at least 3 log10 bacterial reduction ([1]; 24 h): >70.0 ppm
- Minimum biocide dosage (ppm, active) needed for at least 3 log10 bacterial reduction ([1]; 48 h, reinoculated): >70.0 ppm
- Minimum biocide dosage (ppm, active) needed for at least 3 log10 bacterial reduction ([1]; 72 h, reinoculated): >70.0 ppm
- Minimum biocide dosage (ppm, active) needed for at least 3 log10 bacterial reduction ([1]; 96 h, reinoculated): >70.0 ppm

SMILES: N#CC(Br)(Br)C(=O)NCCCO [DBCHA, 2,2-Dibromo-2-cyano-N-(3-hydroxypropyl)acetamide]
- Dosage required for 3 log10 bacterial reduction (ppm, active) ([2]; 1 hr, pH 8.5): 4.4 ppm
- Dosage required for 3 log10 bacterial reduction (ppm, active) ([2]; 3 hr, pH 8.5): 4.4 ppm
- Dosage required for 3 log10 bacterial reduction (ppm, active) ([2]; 24 hr, pH 8.5): 9.9 ppm
- Dosage required for 3 log10 bacterial reduction (ppm, active) [2, 9]: 33.3 ppm
- long term bactericidal efficacy compared with DBNPA [2]: better long term efficacy than DBNPA

SMILES: NC(=O)C(Br)(Br)C(N)=O [DBMAL, 2,2-Dibromomalonamide]
- change in numbers of viable bacteria (FIG. 3) ([3]; 100 ppm to 150 ppm, 48 hr contact time): decrease slightly
- decrease in viable bacteria (FIG. 3) ([3]; 175 ppm): approximately one
- reduction in viable bacteria (FIG. 3) ([3]; concentrations higher than 175 ppm): at least five
- change in populations of bacteria (FIG. 6) (bacterial consortium; 5 ppm, 24-hr contact): decrease relatively little
- decrease in numbers of bacteria (FIG. 6) (bacterial consortium; 10 ppm, 24-hr contact): more than 2.5 orders of magnitude
- difference in numbers of bacteria versus samples with 50 ppm DBNPA (FIG. 7) (bacterial consortium; 20 ppm DBMAL, 24-hr contact time): approximately one-quarter
- single dose efficacy comparison (FIG. 7) (bacterial consortium; single dose of 20 ppm, 24-hr contact time): as effective as 50 ppm DBNPA or 16 ppm CMIT
- bacterial counts (FIG. 5) ([4]; 2-hr contact): increased inhibition of the bacteria at pH 9.0 versus pH 7.0 and 8.0
- bacterial counts (FIG. 5) ([4]; 24 hr contact, limit of detection): 1.0 log10
- Minimum biocide dosage (ppm, active) needed for at least 3 log10 bacterial reduction ([1]; 1 h): 15.0 ppm
- Minimum biocide dosage (ppm, active) needed for at least 3 log10 bacterial reduction ([1]; 3 h): 11.0 ppm
- Minimum biocide dosage (ppm, active) needed for at least 3 log10 bacterial reduction ([1]; 24 h): 5.0 ppm
- Minimum biocide dosage (ppm, active) needed for at least 3 log10 bacterial reduction ([1]; 48 h, reinoculated): 5.0 ppm
- Minimum biocide dosage (ppm, active) needed for at least 3 log10 bacterial reduction ([1]; 72 h, reinoculated): 5.0 ppm
- Minimum biocide dosage (ppm, active) needed for at least 3 log10 bacterial reduction ([1]; 96 h, reinoculated): 15.0 ppm
- Active concentration (ppm) required for complete kill (6 log reduction) ([5]; 2 hours): 12.5 ppm
- Active concentration (ppm) required for complete kill (6 log reduction) ([5]; 24 hours): 3.12 ppm
- level needed for 6 log kill of AfLp relative to that needed for free cells ([5]; corresponding time points (2 and 24 hours)): about twice
- Dosage required for 3 log10 bacterial reduction (ppm, active) ([2]; 1 hr, pH 8.5): 14.8 ppm
- Dosage required for 3 log10 bacterial reduction (ppm, active) ([2]; 3 hr, pH 8.5): 6.6 ppm
- Dosage required for 3 log10 bacterial reduction (ppm, active) ([2]; 24 hr, pH 8.5): 6.6 ppm
- Dosage required for 3 log10 bacterial reduction (ppm, active) [2, 9]: 6.6 ppm
- long term bactericidal efficacy compared with DBNPA [2]: better than DBNPA
- Bacterial log10 reduction after biocide addition ([6]; 12.5 ppm active, 1 hr): 1.2 log10
- Bacterial log10 reduction after biocide addition ([6]; 12.5 ppm active, 48 hrs, re-inoculated): 5.2 log10
- Bacterial log10 reduction after biocide addition ([6]; 12.5 ppm active, 72 hrs, re-inoculated): 1.2 log10
- Bacterial log10 reduction after biocide addition ([6]; 12.5 ppm active, 96 hrs, re-inoculated): 0.8 log10
- Bacterial log10 reduction after biocide addition ([6]; 25 ppm active, 1 hr): 4.3 log10
- Bacterial log10 reduction after biocide addition ([6]; 25 ppm active, 3 hr): >=5.7 log10
- Bacterial log10 reduction after biocide addition ([6]; 25 ppm active, 24 hrs): >=6.3 log10
- Bacterial log10 reduction after biocide addition ([6]; 25 ppm active, 48 hrs, re-inoculated): 6.0 log10
- Bacterial log10 reduction after biocide addition ([6]; 25 ppm active, 72 hrs, re-inoculated): 3.0 log10
- Bacterial log10 reduction after biocide addition ([6]; 25 ppm active, 96 hrs, re-inoculated): 3.2 log10
- Bacterial log10 reduction after biocide addition ([6]; 50 ppm active, 1 hr): >=5.3 log10
- Bacterial log10 reduction after biocide addition ([6]; 50 ppm active, 3 hr): 5.5 log10
- Bacterial log10 reduction after biocide addition ([6]; 50 ppm active, 24 hrs): >=6.3 log10
- Bacterial log10 reduction after biocide addition ([6]; 50 ppm active, 48 hrs, re-inoculated): >=6.3 log10
- Bacterial log10 reduction after biocide addition ([6]; 50 ppm active, 72 hrs, re-inoculated): 3.8 log10
- Bacterial log10 reduction after biocide addition ([6]; 50 ppm active, 96 hrs, re-inoculated): 4.2 log10
- duration of effectiveness (>3 log10 killing) compared with DBNPA ([6]; same active concentration of 12.5 ppm): one day more
- duration of effectiveness (>3 log10 killing) compared with DBNPA ([6]; same active concentration of 50 ppm and 25 ppm): two days more
- Calculated Percent Reduction of the Active Ingredient ([7]; pH 6.9, T = 30 C., 48 hours): 0%
- Calculated Percent Reduction of the Active Ingredient ([7]; pH 6.9, T = 30 C., 72 hours): 0%
- Calculated Percent Reduction of the Active Ingredient ([7]; pH 8, T = −1 C., 48 hours): 0%
- Calculated Percent Reduction of the Active Ingredient ([7]; pH 8, T = −1 C., 72 hours): 0%
- Calculated Percent Reduction of the Active Ingredient ([7]; pH 8, T = −1 C., 96 hours): 0%
- Calculated Percent Reduction of the Active Ingredient ([7]; pH 9, T = −1 C., 48 hours): 21%
- Calculated Percent Reduction of the Active Ingredient ([7]; pH 9, T = −1 C., 72 hours): 12%
- Calculated Percent Reduction of the Active Ingredient ([7]; pH 9, T = −1 C., 96 hours): 24%
- Minimum dosage (ppm, active) required for at least 3 log10 reduction in bacterial counts ([8]; 2 h): 57 ppm
- Minimum dosage (ppm, active) required for at least 3 log10 reduction in bacterial counts ([8]; 4 h): 44 ppm
- Minimum dosage (ppm, active) required for at least 3 log10 reduction in bacterial counts ([8]; 24 h): 44 ppm
- Minimum dosage (ppm, active) required for at least 3 log10 reduction in bacterial counts ([8]; 48 h): 34 ppm
- Minimum dosage (ppm, active) required for at least 3 log10 reduction in bacterial counts ([8]; 72 h): 26 ppm
- Minimum dosage (ppm, active) required for at least 3 log10 reduction in bacterial counts ([8]; 96 h): 34 ppm
- Active concentration (ppm) required for complete kill (6 log reduction) (Free Legionella; 2 hours): 6.25 ppm
- Active concentration (ppm) required for complete kill (6 log reduction) (Free Legionella; 24 hours): 1.56 ppm

SMILES: CCCCCCCCCC[N+](C)(C)CCCCCCCCCC.[Cl-] [DDAC, didecyl dimethyl ammonium chloride]
- Active concentration (ppm) required for complete kill (6 log reduction) ([5]; 2 hours): 60 ppm
- Active concentration (ppm) required for complete kill (6 log reduction) ([5]; 24 hours): 40 ppm
- Active concentration (ppm) required for complete kill (6 log reduction) (Free Legionella; 2 hours): 20 ppm
- Active concentration (ppm) required for complete kill (6 log reduction) (Free Legionella; 24 hours): 15 ppm

SMILES: CCCCCCCC[N+](C)(C)CCCCCCCC.[Cl-] [Dioctyl dimethyl ammonium chloride]
- Minimum biocide dosage (ppm, active) needed for at least 3 log10 bacterial reduction ([1]; 1 h): 29.0 ppm
- Minimum biocide dosage (ppm, active) needed for at least 3 log10 bacterial reduction ([1]; 3 h): 29.0 ppm
- Minimum biocide dosage (ppm, active) needed for at least 3 log10 bacterial reduction ([1]; 24 h): 56.0 ppm
- Minimum biocide dosage (ppm, active) needed for at least 3 log10 bacterial reduction ([1]; 48 h, reinoculated): 56.0 ppm
- Minimum biocide dosage (ppm, active) needed for at least 3 log10 bacterial reduction ([1]; 72 h, reinoculated): 79.0 ppm
- Minimum biocide dosage (ppm, active) needed for at least 3 log10 bacterial reduction ([1]; 96 h, reinoculated): >79.0 ppm

SMILES: O=CCCCC=O [Glutaraldehyde]
- Minimum biocide dosage (ppm, active) needed for at least 3 log10 bacterial reduction ([1]; 1 h): 36.0 ppm
- Minimum biocide dosage (ppm, active) needed for at least 3 log10 bacterial reduction ([1]; 3 h): 26.0 ppm
- Minimum biocide dosage (ppm, active) needed for at least 3 log10 bacterial reduction ([1]; 24 h): 26.0 ppm
- Minimum biocide dosage (ppm, active) needed for at least 3 log10 bacterial reduction ([1]; 48 h, reinoculated): 51.0 ppm
- Minimum biocide dosage (ppm, active) needed for at least 3 log10 bacterial reduction ([1]; 72 h, reinoculated): 51.0 ppm
- Minimum biocide dosage (ppm, active) needed for at least 3 log10 bacterial reduction ([1]; 96 h, reinoculated): 71.0 ppm
- Active concentration (ppm) required for complete kill (6 log reduction) ([5]; 2 hours): 20 ppm
- Active concentration (ppm) required for complete kill (6 log reduction) ([5]; 24 hours): 15 ppm
- Active concentration (ppm) required for complete kill (6 log reduction) (Free Legionella; 2 hours): 10 ppm
- Active concentration (ppm) required for complete kill (6 log reduction) (Free Legionella; 24 hours): 5 ppm

SMILES: CCN1CN(CC)CN(CC)C1 [Triazine, 1,3,5-triethylhexahydro-1,3,5-triazine]
- Minimum dosage (ppm, active) required for at least 3 log10 reduction in bacterial counts ([8]; 2 h): 1934 ppm
- Minimum dosage (ppm, active) required for at least 3 log10 reduction in bacterial counts ([8]; 4 h): 1487 ppm
- Minimum dosage (ppm, active) required for at least 3 log10 reduction in bacterial counts ([8]; 24 h): 1144 ppm
- Minimum dosage (ppm, active) required for at least 3 log10 reduction in bacterial counts ([8]; 48 h): 1144 ppm
- Minimum dosage (ppm, active) required for at least 3 log10 reduction in bacterial counts ([8]; 72 h): 1144 ppm
- Minimum dosage (ppm, active) required for at least 3 log10 reduction in bacterial counts ([8]; 96 h): 1144 ppm
